Biological target: T1, human sGC (Homo sapiens, UniProt Q02153)
T1 sequence (Q02153 1-619): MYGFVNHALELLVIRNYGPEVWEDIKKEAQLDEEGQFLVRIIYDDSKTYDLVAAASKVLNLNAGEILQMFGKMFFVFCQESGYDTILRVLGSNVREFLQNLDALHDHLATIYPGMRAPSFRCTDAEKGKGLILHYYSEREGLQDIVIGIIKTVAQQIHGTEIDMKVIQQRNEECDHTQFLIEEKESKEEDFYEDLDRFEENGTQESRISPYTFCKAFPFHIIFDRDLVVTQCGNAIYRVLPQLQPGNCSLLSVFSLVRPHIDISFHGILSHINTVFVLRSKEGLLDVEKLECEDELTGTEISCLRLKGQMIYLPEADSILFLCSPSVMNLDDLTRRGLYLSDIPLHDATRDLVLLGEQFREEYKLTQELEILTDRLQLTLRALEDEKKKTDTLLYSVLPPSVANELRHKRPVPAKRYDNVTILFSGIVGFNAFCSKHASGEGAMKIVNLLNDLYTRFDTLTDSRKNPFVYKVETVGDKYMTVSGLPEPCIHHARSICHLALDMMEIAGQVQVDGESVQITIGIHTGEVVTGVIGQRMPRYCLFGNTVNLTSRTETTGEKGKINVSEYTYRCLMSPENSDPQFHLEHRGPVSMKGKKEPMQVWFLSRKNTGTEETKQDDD
T1 sequence (Q02108 1-690 partner): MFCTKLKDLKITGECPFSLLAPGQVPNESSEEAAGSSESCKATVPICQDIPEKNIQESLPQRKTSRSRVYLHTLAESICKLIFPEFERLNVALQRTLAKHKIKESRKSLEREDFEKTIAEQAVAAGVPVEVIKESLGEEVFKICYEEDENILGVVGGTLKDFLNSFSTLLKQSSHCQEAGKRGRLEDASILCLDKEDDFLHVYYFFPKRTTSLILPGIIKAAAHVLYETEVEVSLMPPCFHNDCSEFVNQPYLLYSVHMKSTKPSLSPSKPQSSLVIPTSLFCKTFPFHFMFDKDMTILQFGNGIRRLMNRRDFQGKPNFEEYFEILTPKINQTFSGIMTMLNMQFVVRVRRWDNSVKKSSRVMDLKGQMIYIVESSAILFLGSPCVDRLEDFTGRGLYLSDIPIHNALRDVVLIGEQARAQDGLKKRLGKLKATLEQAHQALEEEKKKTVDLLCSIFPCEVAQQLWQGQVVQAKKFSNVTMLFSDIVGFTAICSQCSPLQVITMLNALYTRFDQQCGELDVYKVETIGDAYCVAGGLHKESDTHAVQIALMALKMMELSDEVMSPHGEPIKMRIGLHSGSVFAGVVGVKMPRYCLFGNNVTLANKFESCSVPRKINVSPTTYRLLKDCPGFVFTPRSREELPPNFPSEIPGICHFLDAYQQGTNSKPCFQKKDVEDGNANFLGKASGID
Assay: sGC enzyme assay, fluorescence polarisation of labelled cGMP
Format: biochemical
Settings: human sGC 1 nM, FP assay; concentration able to increase by 5-fold basal cGMP
Protocol: The activity of soluble guanylate cyclase (sGC) was tested in an assay based on measuring the fluorescent polarisation (FP) signal of fluorescently labelled cGMP. FP increased on interaction with an anti-cGMP antibody as the motility of the molecule was reduced. Newly produced cGMP displaced the interaction giving rise to a decrease in polarisation and FP signal which was equated to enzyme activity. Compounds were incubated with human sGC, anti-cGMP antibody, the GTP substrate and fluorescently labelled cGMP. After a period of one hour the assay was stopped with the addition of EDTA and after a further hour the assay was read.
Human sGC was thawed and resuspended in assay buffer (100 mM TRIS, 10 mM MgCl2, 0.2 mM Tween 20, pH7.4, containing 1:100 dilution of sheep anti-cGMP) to give final concentration of 1 nM in the well. A substrate solution was prepared containing GTP and 8-fluo-cGMP in de-ionized water to a final concentration of 25 μM and 50 nM respectively. Assay plates containing 5 μL of various test compounds and of a standard agonist (50 μM-50 nM) in 1% DMSO as 6 point, four fold dilutions across a 96 well plate were used in the assay. The plate also contained 6 wells of DMSO (1%) to produce high control and a cGMP standard curve (14 nM to 10 μM) to convert FP data to cGMP concentration. 25 μL of enzyme mix and 20 μl of substrate mix described above were added to each well of the plate. Samples were mixed on an orbital shaker and then incubated at room temperature for 1 hour. After this incubation period 5 μl of 0.5M EDTA was added to all wells and the plates were incubated for a further hour at room temperature prior to reading the FP signal in an appropriate reader. For data handling FP data were converted to cGMP concentrations and then fitted using ActivityBase software. The activity of a test compound was determined as the pEC500 value which is the concentration able to increase by 5-fold basal cGMP.

Structure (SMILES)	sGC pEC500
Cc1cc(OCCCn2ccc(C(F)(F)F)n2)ccc1CCc1ccccc1-c1cccc(-n2ncc(C(=O)O)c2C(F)(F)F)n1 [Example 3, 1-(6-(2-(2-methyl-4-(3-(3-(trifluoromethyl)-1H-pyrazol-1-yl)propoxy)phenethyl)phenyl)pyridin-2-yl)-5-(trifluoromethyl)-1H-pyrazole-4-carboxylic acid]	7.88
O=C(O)c1cnn(-c2cccc(-c3ccccc3OCc3ccc(OCCCC(F)(F)F)cc3F)n2)c1C(F)(F)F [Example 5, 1-(6-(2-((2-fluoro-4-(4,4,4-trifluorobutoxy)benzyl)oxy)phenyl)pyridin-2-yl)-5-(trifluoromethyl)-1H-pyrazole-4-carboxylic acid]	6.88
COCCCOc1ccc(COc2ccccc2-c2cccc(-n3ncc(C(=O)O)c3C(F)(F)F)n2)c(F)c1 [Example 6, 1-(6-(2-((2-fluoro-4-(3-methoxypropoxy)benzyl)oxy)phenyl)pyridin-2-yl)-5-(trifluoromethyl)-1H-pyrazole-4-carboxylic acid]	7.4
Cc1cc(OCCCC(F)(F)F)ccc1CCc1ccccc1-c1cccc(-n2ncc(C(=O)O)c2C(F)(F)F)n1 [Example 1, 1-(6-(2-(2-methyl-4-(4,4,4-trifluorobutoxy)phenethyl)phenyl)pyridin-2-yl)-5-(trifluoromethyl)-1H-pyrazole-4-carboxylic acid]	6.95
Cc1cc(OCCCC(F)(F)F)ccc1COc1ccccc1-c1cccc(-n2ncc(C(=O)O)c2C(F)(F)F)n1 [Example 11, 1-(6-(2-((2-methyl-4-(4,4,4-trifluorobutoxy)benzyl)oxy)phenyl)pyridin-2-yl)-5-(trifluoromethyl)-1H-pyrazole-4-carboxylic acid]	7.47
Cc1cc(OCCCC#N)ccc1COc1ccccc1-c1cccc(-n2ncc(C(=O)O)c2C(F)(F)F)n1 [Example 9, 1-(6-(2-((4-(3-cyanopropoxy)-2-methylbenzyl)oxy)phenyl)pyridin-2-yl)-5-(trifluoromethyl)-1H-pyrazole-4-carboxylic acid]	7.73
COCCCOc1ccc(COc2ccccc2-c2cccc(-n3ncc(C(=O)O)c3C(F)(F)F)n2)c(C)c1 [Example 10, 1-(6-(2-((4-(3-methoxypropoxy)-2-methylbenzyl)oxy)phenyl)pyridin-2-yl)-5-(trifluoromethyl)-1H-pyrazole-4-carboxylic acid]	7.79
